Results from paper PMC2937023, “Molecular Decoy to the Y-Box Binding Protein-1 Suppresses the Growth of Breast and Prostate Cancer Cells whilst Sparing Normal Cell Viability” (PLoS ONE, 2010).
Ends that are not written are not given here.

Key:
[1] = system: YB-1 binding to the EGFR promoter; details: previous work; cited from earlier work
Experimental: After 72 h, the CPP reduced HER-2 and EGFR protein levels in AU565 cells (Figure 3A). […] Further, in SUM149 cells, EGFR protein and mRNA levels were decreased (Figure 3C-D).

[2] = system: YB-1 binding to the EGFR promoter; experiment: Electrophoretic mobility shift assay (gel shift), SUM149 nuclear extracts; type: biochemical, human; details: SUM149 nuclear protein 5 µg pre-incubated 20 min with 25 µM peptide, EGFR2a oligonucleotides
Experimental: The gel shift assay was performed using EGFR2a oligonucleotides as previously described. Briefly, SUM149 cells were harvested and cytoplasmic/nuclear fractions were obtained using the NE-PER kit followed by EMSA using the Lightshift Chemiluminescent EMSA kit (both kits from Pierce Biotechnology, Rockford, IL). Nuclear extracts were confirmed to contain RSK and YB-1 by immunoblotting. Nuclear protein (5 µg) was pre-incubated for 20 min with unlabeled oligonucleotide plus acetic acid control, scrambled peptide (25 µM), or CPP (25 µM or 50 µM) prior to the addition of biotin-labeled oligonucleotide. Chicken anti-YB-1 (1 µg) was used as positive control. Reactions were run on a non-denaturing polyacrylamide gel, transferred to a nylon membrane, cross-linked at 120 mJ/cm^2 using a Stratalinker (Stratagene, La Jolla, CA) and visualized with chemiluminescence (Pierce Biotechnology).

[3] = system: EpCAM^+ primary normal human breast epithelial cells; experiment: Normal mammary epithelial cells assay, colony-forming cell (CFC) assay; type: cell-based; details: cells from two patients, 6 or 25 µM for 48 hours, colonies counted 7 days post-seeding
Experimental: EpCAM^+ primary normal human breast epithelial cells from two patients were obtained, prepared, and isolated as previously described, [36]. In all subsequent experiments, the primary epithelial cells were grown in Epicult-B media (StemCell Technologies, Vancouver, BC) supplemented with 5% fetal calf serum. For the colony-forming cell (CFC) assay, EpCAM^+ cells from each patient were first seeded at 7000 cells/well into a 96 well plate and treated the following day with either diluent, scrambled peptide (6 or 25 µM), or CPP (6 or 25 µM) in triplicate wells for 48 hours. Following this peptide incubation, cells were harvested with trypsin, a single cell suspension was generated, and cells were seeded into the CFC assay as previously described, [37]. Colonies were counted 7 days post-seeding.

184htert cells = experiment: Monolayer growth assay, normal immortalized mammary epithelial cells; type: cell-based, human; details: 72 h, MTS proliferation assay, 0–50 µM
Experimental: For monolayer assays, cells were plated at 5000 cells per well in a 96 well plate. The following day cells were treated with diluent, 0–50 µM of scrambled peptide, or 0–50 µM CPP. […] Growth was shown as a percentage of diluent control and changes in growth were considered significant at P<0.01.

SUM149 cells = experiment: Monolayer growth assay, SUM149; type: cell-based, human; details: SUM149, 72 h, 0–50 µM scrambled peptide, MTS
Experimental: (§3) For monolayer assays, cells were plated at 5000 cells per well in a 96 well plate. The following day cells were treated with diluent, 0–50 µM of scrambled peptide, or 0–50 µM CPP. The BT474, BT474-m1, HR5 and HR6 cells were also tested in combination with trastuzumab (BC Cancer Agency pharmacy, Vancouver, BC) at 20 µg/mL. […] Growth was shown as a percentage of diluent control and changes in growth were considered significant at P<0.01.

[4] = system: EpCAM^+ primary normal human breast epithelial cells; experiment: Normal mammary epithelial cells assay, MTS growth; type: cell-based; details: cells from reduction mammoplasties of two patients, 6 or 25 µM, 72 h
HER-2 [5] = experiment: Immunoblotting of HER-2 protein in AU565 cells; type: cell-based, human; details: 72 h, western blot
Experimental: (§1) Cell lines used herein were evaluated for YB-1, the activating kinases RSK and AKT, and the downstream targets EGFR and HER-2. […] Proteins were extracted using ELB plus protease and phosphatase inhibitors and western blotting was performed as previously described. The following antibodies were used to detect proteins by immunoblotting (unless otherwise indicated, all antibodies were from Cell Signaling Technology, Danvers, MA): P-YB-1^S102 (1/500), YB-1 (1/2000, Abcam, Cambridge, MA), EGFR (1/5000, Stressgen, San Diego, CA), P-p90RSK^S380 (1/500), RSK1/RSK2/RSK3 (1/1000), HER-2 (1/1000, Abcam), AKT (1/1000), creb (1/1000), pan-actin (1/1000), vinculin (1/1000). Blots were quantified using ImageJ software.

BT474 cells = experiment: Monolayer growth assay, BT474, with or without trastuzumab; type: cell-based, human; details: 72 h, MTS
Experimental: as §3

HR5 cells = experiment: Monolayer growth assay, HR5 (trastuzumab resistant), with or without trastuzumab; type: cell-based, human; details: 72 h, MTS
Experimental: as §3

P-YB-1^S102 [6] = experiment: Immunoblotting of P-YB-1^S102 in SUM149 cells; type: cell-based, human
Experimental: as §1

HR6 cells = experiment: Monolayer growth assay, HR6 (trastuzumab resistant), with or without trastuzumab; type: cell-based, human; details: 72 h, MTS
Experimental: as §3

EGFR [7] = experiment: Real-time quantitative RT-PCR of EGFR transcript in SUM149 cells; type: cell-based, human; details: 50 µM CPP, 24 h, qRT-PCR
Experimental: (§2) RNA was isolated from log growing AU565 and SUM149 cells treated with 50 µM scrambled CPP or 50 µM CPP for 24 h using the RNeasy Mini kit from Qiagen (Mississauga, ON). The RNA was reverse transcribed and amplified using HER-2 (for AU565 cells) or EGFR (for SUM149 and AU565 cells) specific primers and probes (Applied Biosystems, Foster City, CA). 18S mRNA was quantified as a housekeeping gene (Applied Biosystems).

EGFR [8] = experiment: Immunoblotting of EGFR protein in SUM149 cells; type: cell-based, human; details: 72 h, western blot
Experimental: as §1

BT474-m1 cells = experiment: Monolayer growth assay, BT474-m1, with or without trastuzumab; type: cell-based, human; details: 72 h, MTS
Experimental: as §3

P-YB-1^S102 [9] = experiment: Immunoblotting of P-YB-1^S102 in AU565 cells; type: cell-based, human; details: 12.5–50 µM CPP, 72 h, western blot
Experimental: as §1

HER-2 [10] = experiment: Real-time quantitative RT-PCR of HER-2 transcript in AU565 cells; type: cell-based, human; details: 50 µM CPP, 24 h, qRT-PCR, 18S housekeeping
Experimental: as §2

EGFR [11] = experiment: Real-time quantitative RT-PCR of EGFR transcript in AU565 cells; type: cell-based, human; details: 50 µM CPP, 24 h, qRT-PCR, 18S housekeeping
Experimental: as §2

P-YB-1^S102 [12] = experiment: Immunoblotting of P-YB-1^S102 in LNCap cells; type: cell-based, human; details: 12.5–50 µM CPP, 72 h, western blot
Experimental: as §1

EGFR [13] = experiment: Immunoblotting of EGFR protein in AU565 cells; type: cell-based, human; details: 72 h, western blot
Experimental: as §1

For COc1cccc(-c2cc(=O)c3ccccc3o2)c1N [PD098059], the “YB-1 binding to the EGFR promoter” value [1] is listed as “reverse YB-1 binding”.

For CC(=O)O[C@@H]1[C@@H](OC(C)=O)[C@@H](O)[C@H](Oc2c(-c3ccc(O)cc3)oc3cc(O)cc(O)c3c2=O)O[C@H]1C [SL0101], the “YB-1 binding to the EGFR promoter” value [1] is listed as “reverse YB-1 binding”.

With RALKYGVRP [scrambled peptide] the “YB-1 binding to the EGFR promoter (gel shift)” value [2] was “bound with high affinity”, the “growth of normal breast epithelial cells (CFC output)” value [3] was “neither the scrambled peptide nor the CPP had any growth effect” and the “growth of normal human mammary epithelial cells” value (184htert cells) was “neither the scrambled control peptide nor the CPP inhibited growth”. For the same compound, the effect on growth (SUM149 cells) was “no effect” and the “growth of normal breast epithelial cells (MTS)” value [4] was “neither the scrambled peptide nor the CPP had any growth effect”.

With RQIKIWFQNRRMKWKKPRKYLRSVG-OH [CPP] the HER-2 protein level (HER-2 [5]) was “reduced”, the sensitivity to trastuzumab (BT474 cells; BT474, CPP 12.5 or 50 µM with trastuzumab 20 µg/ml) was “increased the sensitivity” and the “growth, CPP alone” value (BT474 cells; BT474, CPP 12.5 or 50 µM) was “suppressed the growth”. The sensitivity to trastuzumab (HR5 cells; HR5, CPP with trastuzumab 20 µg/ml) was “overcome drug insensitivity”, the “growth, CPP” value (HR5 cells; HR5 trastuzumab resistant cells) was “significantly suppress growth” and the “YB-1 binding to the EGFR promoter (gel shift)” value [2] was “blocked binding”. The “phosphorylation of YB-1^S102” value (P-YB-1^S102 [6]; 12.5–50 µM CPP, 72 h, western blot) was “decreased phosphorylation”, the “decrease of P-YB-1^S102” value (P-YB-1^S102 [6]; 1 h, western blot quantified using ImageJ, relative P-YB-1:YB-1) was 32% and the sensitivity to trastuzumab (HR6 cells; HR6, CPP with trastuzumab 20 µg/ml) was “overcome drug insensitivity”. The “growth, CPP” value (HR6 cells; HR6 trastuzumab resistant cells) was “significantly suppress growth”, the “EGFR mRNA level” value (EGFR [7]) was “decreased” and the EGFR protein level (EGFR [8]) was “decreased”. The sensitivity to trastuzumab (BT474-m1 cells; BT474-m1, CPP 12.5 or 50 µM with trastuzumab 20 µg/ml) was “increased the sensitivity”, the “growth, CPP alone” value (BT474-m1 cells; BT474-m1, CPP 12.5 or 50 µM) was “suppressed the growth” and the “phosphorylation of YB-1^S102” value (P-YB-1^S102 [9]) was “decreased phosphorylation”. The “reduction of HER-2 transcript level” value (HER-2 [10]) was roughly 50%, the “reduction of EGFR transcript level” value (EGFR [11]) was roughly 50% and the “phosphorylation of YB-1^S102” value (P-YB-1^S102 [12]) was “decreased phosphorylation”. For the same compound, the EGFR protein level (EGFR [13]) was “reduced”.
